Data from publication PMC10922772 (ACS infectious diseases, 2024).
Where “and” joins values, the source holds several entries; their conditions need not be identical. Identical values can stand only once.

Biological target: SARS-CoV-2 Mpro (Severe acute respiratory syndrome coronavirus 2, UniProt P0DTD1)
Assay: biochemical
Conditions: for inhibition at 20 µM: read-out: % inhibition at 20 μM; for IC50: IC50, enzyme 100 nM, substrate 20 μM, 10 min preincubation, pH 6.5; for fold less active than the other (more active) diastereomer: between the two diastereomers of the same compound; for fold less active than compound 13: IC50 compared with compound 13

CC(C)(C)c1ccc(N(C(=O)CCl)C(C(=O)NCc2ccccc2)c2cccnc2)cc1 (centres unmarked) [Compound 23, N-Benzyl-2-(N-(4-(tert-butyl)phenyl)-2-chloroacetamido)-2-(pyridin-3-yl)acetamide]
inhibition at 20 µM: 41%

CC(C)(C)NC(=O)C(c1cccnc1)N(C(=O)C1OC1(C)C)c1ccc(C(C)(C)C)cc1 (centres unmarked) [Compound 40, N-(4-(tert-Butyl)phenyl)-N-(2-(tert-butylamino)-2-oxo-1-(pyridin-3-yl)ethyl)-3,3-dimethyloxirane-2-carboxamide]
inhibition at 20 µM: 31%

COc1ccc(N(C(=O)CCl)C(C(=O)NC(C)(C)C)c2cccnc2)cc1 (centres unmarked) [Compound 22, N-(tert-Butyl)-2-(2-chloro-N-(4-methoxyphenyl)acetamido)-2-(pyridin-3-yl)acetamide]
IC50: 1600 nM and 1610 nM

Nc1cccc(N(C(=O)c2ccco2)C(C(=O)NCc2ccccc2)c2cccnc2)c1 (centres unmarked) [Compound 12, N-(3-Aminophenyl)-N-(2-(benzylamino)-2-oxo-1-(pyridin-3-yl)ethyl)furan-2-carboxamide]
inhibition at 20 µM: 18%

CC1OC1C(=O)N(c1ccc(C(C)(C)C)cc1)C(C(=O)NC(C)(C)C)c1cccnc1 [(R, R, S)- and (S, S, R)-39, N-(4-(tert-Butyl)phenyl)-N-(2-(tert-butylamino)-2-oxo-1-(pyridin-3-yl)ethyl)-3-methyloxirane-2-carboxamide]
IC50: 5320 ± 640 nM

CC(C)(C)NC(=O)C(c1cccnc1)N(C(=O)C1(C)CO1)c1ccc(C(C)(C)C)cc1 (centres unmarked) [Compound 41, N-(4-(tert-Butyl)phenyl)-N-(2-(tert-butylamino)-2-oxo-1-(pyridin-3-yl)ethyl)-2-methyloxirane-2-carboxamide]
inhibition at 20 µM: 22%

CC(C)(C)c1ccc(N(C(=O)C2CO2)C(C(=O)NCc2ccccc2)c2cccnc2)cc1 [(R, R)- and (S, S)-42, N-(2-(Benzylamino)-2-oxo-1-(pyridin-3-yl)ethyl)-N-(4-(tert-butyl)phenyl)oxirane-2-carboxamide]
inhibition at 20 µM: 45%

CC(C)(C)NC(=O)C(c1cccnc1)N(C(=O)CCl)c1ccc(CC2CO2)cc1 (centres unmarked) [Compound 17, N-(tert-Butyl)-2-(2-chloro-N-(4-(oxiran-2-ylmethyl)phenyl)acetamido)-2-(pyridin-3-yl)acetamide]
IC50: 3600 ± 300 nM

O=C(Nc1cccc(N(C(=O)c2ccco2)C(C(=O)NCc2ccccc2)c2cccnc2)c1)C(Cl)Cl (centres unmarked) [Compound 9, N-(2-(Benzylamino)-2-oxo-1-(pyridin-3-yl)ethyl)-N-(3-(2,2-dichloroacetamido)phenyl)furan-2-carboxamide]
inhibition at 20 µM: 20%

CC(C)(C)c1ccc(N(C(=O)C2CO2)C(C(=O)NC2CCCCC2)c2cccnc2)cc1 [(R, R)- and (S, S)-30, N-(4-(tert-Butyl)phenyl)-N-(2-(cyclohexylamino)-2-oxo-1-(pyridin-3-yl)ethyl)oxirane-2-carboxamide]
IC50: 9900 ± 1600 nM
fold less active than the other (more active) diastereomer: 13 ×

C=CC(=O)N(c1ccc(C(C)(C)C)cc1)C(C(=O)NC1CCCCC1)c1cccnc1 (centres unmarked) [Compound 29, N-(4-(tert-Butyl)phenyl)-N-(2-(cyclohexylamino)-2-oxo-1-(pyridin-3-yl)ethyl)acrylamide]
inhibition at 20 µM: 30%

CC1OC1C(=O)N(c1ccc(C(C)(C)C)cc1)C(C(=O)NC1CCCCC1)c1cccnc1 [(R, R, S)- and (S, S, R)-35, N-(4-(tert-Butyl)phenyl)-N-(2-(cyclohexylamino)-2-oxo-1-(pyridin-3-yl)ethyl)-3-methyloxirane-2-carboxamide]
fold less active than the other (more active) diastereomer: ~ 10 ×
inhibition at 20 µM: 42%

C=CC(=O)Nc1ccc(N(C(=O)c2ccco2)C(C(=O)NCc2ccccc2)c2cccnc2)cc1 (centres unmarked) [Compound 7, N-(4-Acrylamidophenyl)-N-(2-(benzylamino)-2-oxo-1-(pyridin-3-yl)ethyl)furan-2-carboxamide]
inhibition at 20 µM: 22%

CC(C)(C)NC(=O)C(c1cccnc1)N(C(=O)C(=O)Cc1ccccc1)c1ccc(C(C)(C)C)cc1 (centres unmarked) [Compound 31, N-(4-(tert-Butyl)phenyl)-N-(2-(tert-butylamino)-2-oxo-1-(pyridin-3-yl)ethyl)-2-oxo-3-phenylpropanamide]
inhibitory activity against Mpro (in words): inactive
inhibition at 20 µM: 0%

CC(C)(C)NC(=O)C(c1cccnc1)N(C(=O)CO)c1ccc(C(C)(C)C)cc1 (centres unmarked) [Compound 32, N-(tert-Butyl)-2-(N-(4-(tert-butyl)phenyl)-2-hydroxyacetamido)-2-(pyridin-3-yl)acetamide]
inhibition at 20 µM: 21%

CC(C)(C)NC(=O)C(c1cccnc1)N(C(=O)C1CO1)c1ccc(C(C)(C)C)cc1 [(R, S)- and (S, R)-38, N-(4-(tert-Butyl)phenyl)-N-(2-(tert-butylamino)-2-oxo-1-(pyridin-3-yl)ethyl)oxirane-2-carboxamide]
IC50: 1200 nM and 1240 nM

CC(C)(C)c1ccc(N(C(=O)CC#N)C(C(=O)NC2CCCCC2)c2cccnc2)cc1 (centres unmarked) [Compound 34, N-(4-(tert-Butyl)phenyl)-2-cyano-N-(2-(cyclohexylamino)-2-oxo-1-(pyridin-3-yl)ethyl)acetamide]
inhibition at 20 µM: 28%

O=C(CCl)Nc1ccc(N(C(=O)c2ccco2)C(C(=O)NCc2ccccc2)c2cccnc2)cc1 (centres unmarked) [Compound 5, N-(2-(Benzylamino)-2-oxo-1-(pyridin-3-yl)ethyl)-N-(4-(2-chloroacetamido)phenyl)furan-2-carboxamide]
IC50: ~20000 nM
inhibition at 20 µM: 47%

CC1(C(=O)N(c2ccc(C(C)(C)C)cc2)C(C(=O)NC2CCCCC2)c2cccnc2)CO1 (centres unmarked) [Compound 37, N-(4-(tert-Butyl)phenyl)-N-(2-(cyclohexylamino)-2-oxo-1-(pyridin-3-yl)ethyl)-2-methyloxirane-2-carboxamide]
activity reduction vs. compound 30 (compared with more active diastereomer of 30): > 25 fold
inhibition at 20 µM: 28%

CC(C)(C)NC(=O)C(c1cccnc1)N(C(=O)CCl)c1cccc(N)c1 (centres unmarked) [Compound 21, N-(3-Aminophenyl)-N-(2-(tert-butylamino)-2-oxo-1-(pyridin-3-yl)ethyl)-2-chloroacetamide]
inhibition at 20 µM: 33%

CCCCNC(=O)C(c1cccnc1)N(C(=O)CCl)c1ccc(C(C)(C)C)cc1 (centres unmarked) [Compound 24, N-Butyl-2-(N-(4-(tert-butyl)phenyl)-2-chloroacetamido)-2-(pyridin-3-yl)acetamide]
IC50: 2400 ± 300 nM

CC(C)(C)NC(=O)C(c1cccnc1)N(C(=O)CCl)c1cccc(NC(=O)C(Cl)Cl)c1 (centres unmarked) [Compound 19, N-(tert-Butyl)-2-(2-chloro-N-(3-(2,2-dichloroacetamido)phenyl)acetamido)-2-(pyridin-3-yl)acetamide]
IC50: 2200 ± 510 nM

Nc1ccc(N(C(=O)c2ccco2)C(C(=O)NCc2ccccc2)c2cccnc2)cc1 (centres unmarked) [Compound 11, N-(4-Aminophenyl)-N-(2-(benzylamino)-2-oxo-1-(pyridin-3-yl)ethyl)furan-2-carboxamide]
inhibition at 20 µM: 0%

CC(C)(C)c1ccc(N(C(=O)C2CO2)C(C(=O)NCc2ccccc2)c2cccnc2)cc1 [(R, S)- and (S, R)-42, N-(2-(Benzylamino)-2-oxo-1-(pyridin-3-yl)ethyl)-N-(4-(tert-butyl)phenyl)oxirane-2-carboxamide]
IC50: 1600 ± 320 nM

CC1OC1C(=O)N(c1ccc(C(C)(C)C)cc1)C(C(=O)NC(C)(C)C)c1cccnc1 [(R, S, R)- and (S, R, S)-39, N-(4-(tert-Butyl)phenyl)-N-(2-(tert-butylamino)-2-oxo-1-(pyridin-3-yl)ethyl)-3-methyloxirane-2-carboxamide]
IC50: 4330 ± 320 nM

CC(C)(C)NC(=O)C(c1cccnc1)N(C(=O)c1ccco1)c1ccc(CC2CO2)cc1 (centres unmarked) [Compound 4, N-(2-(tert-Butylamino)-2-oxo-1-(pyridin-3-yl)ethyl)-N-(4-(oxiran-2-ylmethyl)phenyl)furan-2-carboxamide]
inhibition at 20 µM: 10%

CC(C)(C)NC(=O)C(c1cccnc1)N(C(=O)CCl)c1ccc(N)cc1 (centres unmarked) [Compound 20, N-(4-Aminophenyl)-N-(2-(tert-butylamino)-2-oxo-1-(pyridin-3-yl)ethyl)-2-chloroacetamide]
inhibition at 20 µM: 12%

CC(C)(C)c1ccc(N(C(=O)CCl)C(C(=O)NC2CCCCC2)c2cccnc2)cc1 (centres unmarked) [Compound 26, N-(4-(tert-Butyl)phenyl)-2-chloro-N-(2-(cyclohexylamino)-2-oxo-1-(pyridin-3-yl)ethyl)acetamide]
IC50: 490 ± 220 nM

CC(C)(C)NC(=O)C(c1cccnc1)N(C(=O)CCl)c1ccc(-c2ccccc2)cc1 (centres unmarked) [Compound 14, N-([1,1’-Biphenyl]-4-yl)-N-(2-(tert-butylamino)-2-oxo-1-(pyridin-3-yl)ethyl)-2-chloroacetamide]
IC50: 950 ± 40 nM

CC(C)(C)NC(=O)C(c1cccnc1)N(C(=O)CCl)c1ccc(NC(=O)C(Cl)Cl)cc1 (centres unmarked) [Compound 16, N-(tert-Butyl)-2-(2-chloro-N-(4-(2,2-dichloroacetamido)phenyl)acetamido)-2-(pyridin-3-yl)acetamide]
IC50: 3600 ± 190 nM
fold less active than compound 13: ~ 5 ×

C=Cc1ccc(N(C(=O)c2ccco2)C(C(=O)NCc2ccccc2)c2cccnc2)cc1 (centres unmarked) [Compound 3, N-(2-(Benzylamino)-2-oxo-1-(pyridin-3-yl)ethyl)-N-(4-vinylphenyl)furan-2-carboxamide]
inhibition at 20 µM: 26%

O=C(NCc1ccccc1)C(c1cccnc1)N(C(=O)c1ccco1)c1ccc(C2CO2)cc1 (centres unmarked) [Compound 2, N-(2-(Benzylamino)-2-oxo-1-(pyridin-3-yl)ethyl)-N-(4-(oxiran-2-yl)phenyl)furan-2-carboxamide]
inhibition at 20 µM: 18%

CC(C)(C)NC(=O)C(c1cccnc1)N(C(=O)CCl)c1ccc(NC(=O)CCl)cc1 (centres unmarked) [Compound 15, N-(tert-Butyl)-2-(2-chloro-N-(4-(2-chloroacetamido)phenyl)acetamido)-2-(pyridin-3-yl)acetamide]
IC50: 3200 ± 790 nM
fold less active than compound 13: ~ 5 ×

CC(=O)OCC(=O)N(c1ccc(C(C)(C)C)cc1)C(C(=O)NC(C)(C)C)c1cccnc1 (centres unmarked) [Compound 33, 2-((4-(tert-Butyl)phenyl)(2-(tert-butylamino)-2-oxo-1-(pyridin-3-yl)ethyl)amino)-2-oxoethyl acetate]
inhibition at 20 µM: 0%
